Measured values: ChEMBL document CHEMBL1909046, “DrugMatrix in vitro pharmacology data”

Columns and labels:
[1] = molecular target: T1, Vasoactive intestinal polypeptide receptor 1 (Homo sapiens, UniProt P32241); assay type: cell membranes, Membrane; conditions: ht-29; note: in other assays of this panel Not Active means under 50% inhibition at 10 µM
T1 sequence (P32241 whole entry): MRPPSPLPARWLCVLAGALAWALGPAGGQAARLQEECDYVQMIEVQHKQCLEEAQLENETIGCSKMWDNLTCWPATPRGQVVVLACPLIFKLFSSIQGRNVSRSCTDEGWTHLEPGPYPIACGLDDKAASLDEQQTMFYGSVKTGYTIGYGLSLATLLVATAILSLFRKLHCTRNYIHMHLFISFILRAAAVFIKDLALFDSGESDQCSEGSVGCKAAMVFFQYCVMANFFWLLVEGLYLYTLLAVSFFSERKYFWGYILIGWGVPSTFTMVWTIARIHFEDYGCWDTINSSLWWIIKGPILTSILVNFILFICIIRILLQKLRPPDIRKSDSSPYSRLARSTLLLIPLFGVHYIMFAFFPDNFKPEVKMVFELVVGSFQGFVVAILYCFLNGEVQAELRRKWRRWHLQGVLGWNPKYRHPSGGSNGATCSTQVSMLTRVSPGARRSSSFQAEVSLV

[2] = molecular target: Prostaglandin G/H synthase 1 (Homo sapiens, UniProt P23219); test: biochemical; assay type: tissue-based, Platelet; conditions: platelet;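 note: inhibition of COX-1 enzyme activity, with arachidonic acid supplied as substrate; in other assays of this panel Not Active means under 50% inhibition at 10 µM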
Prostaglandin G/H synthase 1, sequence (P23219 whole entry): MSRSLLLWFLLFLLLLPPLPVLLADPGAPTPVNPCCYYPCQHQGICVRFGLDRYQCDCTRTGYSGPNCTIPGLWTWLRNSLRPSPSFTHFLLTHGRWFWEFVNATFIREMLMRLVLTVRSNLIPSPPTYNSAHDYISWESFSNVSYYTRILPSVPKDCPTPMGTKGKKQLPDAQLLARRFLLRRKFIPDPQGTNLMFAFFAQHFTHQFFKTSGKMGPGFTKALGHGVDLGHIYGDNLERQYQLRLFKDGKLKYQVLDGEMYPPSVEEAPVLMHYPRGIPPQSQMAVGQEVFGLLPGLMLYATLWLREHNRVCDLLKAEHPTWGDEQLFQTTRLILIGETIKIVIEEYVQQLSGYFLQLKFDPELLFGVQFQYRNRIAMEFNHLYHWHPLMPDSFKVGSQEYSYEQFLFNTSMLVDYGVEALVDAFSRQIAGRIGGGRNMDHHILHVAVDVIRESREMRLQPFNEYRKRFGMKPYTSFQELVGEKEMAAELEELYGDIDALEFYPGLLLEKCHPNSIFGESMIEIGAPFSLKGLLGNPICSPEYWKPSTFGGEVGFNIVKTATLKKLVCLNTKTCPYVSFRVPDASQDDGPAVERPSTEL

Histamine H2 receptor = Histamine H2 receptor (Homo sapiens, UniProt P25021); assay type: cell membranes, CHO-K1, Membrane; conditions: cho-k1; note: in other assays of this panel Not Active means under 50% inhibition at 10 µM
Histamine H2 receptor, sequence (P25021 whole entry): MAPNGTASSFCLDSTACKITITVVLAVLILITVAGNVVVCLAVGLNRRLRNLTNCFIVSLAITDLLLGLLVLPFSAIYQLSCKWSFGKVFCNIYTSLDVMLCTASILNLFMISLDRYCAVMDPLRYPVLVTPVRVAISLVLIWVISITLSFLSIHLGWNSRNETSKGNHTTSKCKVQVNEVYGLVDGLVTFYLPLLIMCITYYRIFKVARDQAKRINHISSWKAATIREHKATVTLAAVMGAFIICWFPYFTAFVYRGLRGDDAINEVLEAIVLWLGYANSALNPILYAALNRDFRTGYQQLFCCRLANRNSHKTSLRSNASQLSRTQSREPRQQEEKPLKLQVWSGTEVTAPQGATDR

[3] = molecular target: T2, Amine oxidase [flavin-containing] A (Homo sapiens, UniProt P21397); test: DRUGMATRIX: Monoamine Oxidase MAO-A enzyme inhibition (substrate: Kynuramine); set-up: species or system BTI-TN-5B1-4; conditions: bti-tn-5b1-4; Not Active = under 50% inhibition at 10 µM
T2 sequence (P21397 whole entry): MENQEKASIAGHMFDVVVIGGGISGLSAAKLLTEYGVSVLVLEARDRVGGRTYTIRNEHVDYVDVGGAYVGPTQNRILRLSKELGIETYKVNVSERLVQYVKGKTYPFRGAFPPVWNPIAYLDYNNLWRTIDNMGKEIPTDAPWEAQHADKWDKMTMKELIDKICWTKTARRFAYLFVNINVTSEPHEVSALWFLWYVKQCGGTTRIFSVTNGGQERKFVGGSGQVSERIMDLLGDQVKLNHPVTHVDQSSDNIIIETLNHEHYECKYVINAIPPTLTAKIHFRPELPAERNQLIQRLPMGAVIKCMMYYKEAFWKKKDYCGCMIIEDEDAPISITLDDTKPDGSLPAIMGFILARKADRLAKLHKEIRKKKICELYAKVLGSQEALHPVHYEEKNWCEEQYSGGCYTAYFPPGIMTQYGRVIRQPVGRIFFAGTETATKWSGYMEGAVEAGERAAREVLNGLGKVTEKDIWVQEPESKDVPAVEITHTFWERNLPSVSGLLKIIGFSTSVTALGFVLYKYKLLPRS

[4] = DRUGMATRIX: Purinergic P2X radioligand binding (ligand: [3H] alpha, beta-Methylene-ATP); assay type: cell membranes, Oryctolagus cuniculus, New Zealand albino, Urinary bladder, Membrane; conditions: Not Active = under 50% inhibition at 10 µM
Estrogen receptor = molecular target: T3, Estrogen receptor (Homo sapiens, UniProt P03372); conditions: sf9; note: in other assays of this panel Not Active means under 50% inhibition at 10 µM
T3 sequence (P03372 whole entry): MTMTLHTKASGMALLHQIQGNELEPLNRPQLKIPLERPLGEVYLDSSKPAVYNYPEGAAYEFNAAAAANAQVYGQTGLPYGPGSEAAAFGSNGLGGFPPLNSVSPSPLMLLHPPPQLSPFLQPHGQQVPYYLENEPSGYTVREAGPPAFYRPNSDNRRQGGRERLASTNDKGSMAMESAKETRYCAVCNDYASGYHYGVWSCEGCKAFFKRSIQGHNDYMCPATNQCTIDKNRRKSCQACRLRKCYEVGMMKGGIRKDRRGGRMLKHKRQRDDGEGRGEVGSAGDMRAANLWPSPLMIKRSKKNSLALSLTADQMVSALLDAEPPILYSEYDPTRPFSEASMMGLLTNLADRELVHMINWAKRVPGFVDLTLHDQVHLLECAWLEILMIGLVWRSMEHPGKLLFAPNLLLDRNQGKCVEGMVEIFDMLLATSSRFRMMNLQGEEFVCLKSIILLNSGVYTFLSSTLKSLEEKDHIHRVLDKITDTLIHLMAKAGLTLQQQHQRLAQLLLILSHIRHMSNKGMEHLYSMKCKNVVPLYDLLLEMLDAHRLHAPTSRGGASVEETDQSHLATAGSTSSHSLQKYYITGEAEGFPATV

O=C(c1ccccc1C(F)(F)F)N1CCC(Cc2ccccc2)CC1
Not Active: IC50 [1] | IC50 [2] | IC50 (Histamine H2 receptor) | IC50 [3] | IC50 [4] | Ki [4] | IC50 (Estrogen receptor)

O=C/C=C/c1ccccc1
Not Active: IC50 [1] | IC50 [2] | IC50 (Histamine H2 receptor) | IC50 [3] | IC50 [4] | Ki [4] | IC50 (Estrogen receptor)

Nc1ccc2c3c(cccc13)C(=O)NC2=O
Not Active: IC50 [1] | IC50 [2] | IC50 (Histamine H2 receptor) | IC50 [3] | IC50 [4] | Ki [4] | IC50 (Estrogen receptor)

O=c1cnn([C@@H]2O[C@H](CO)[C@@H](O)[C@H]2O)c(=O)[nH]1 [6-AZAURIDINE]
Not Active: IC50 [1] | IC50 [2] | IC50 (Histamine H2 receptor) | IC50 [3] | IC50 [4] | Ki [4] | IC50 (Estrogen receptor)

CC[C@H](C)[C@H]1O[C@]2(C=C[C@@H]1C)C[C@@H]1C[C@@H](C/C=C(\C)[C@@H](O[C@H]3C[C@H](OC)[C@@H](O[C@H]4C[C@H](OC)[C@@H](O)[C@H](C)O4)[C@H](C)O3)[C@@H](C)/C=C/C=C3\CO[C@@H]4[C@H](O)C(C)=C[C@@H](C(=O)O1)[C@]34O)O2.CO[C@H]1C[C@H](O[C@H]2[C@H](C)O[C@@H](O[C@@H]3/C(C)=C/C[C@@H]4C[C@@H](C[C@]5(C=C[C@H](C)[C@@H](C(C)C)O5)O4)OC(=O)[C@@H]4C=C(C)[C@@H](O)[C@H]5OC/C(=C\C=C\[C@@H]3C)[C@]54O)C[C@@H]2OC)O[C@@H](C)[C@@H]1O [ABAMECTIN]
Not Active: IC50 [1] | IC50 [2] | IC50 (Histamine H2 receptor) | IC50 [3] | IC50 [4] | Ki [4] | IC50 (Estrogen receptor)

Cc1nnc2n1-c1ccc(Cl)cc1C(c1ccccc1)=NC2 [ALPRAZOLAM]
Not Active: IC50 [1] | IC50 [2] | IC50 (Histamine H2 receptor) | IC50 [3] | IC50 [4] | Ki [4] | IC50 (Estrogen receptor)

COc1ccc(C2C(=O)c3ccccc3C2=O)cc1 [ANISINDIONE]
Not Active: IC50 [1] | IC50 [2] | IC50 (Histamine H2 receptor) | IC50 [3] | IC50 [4] | Ki [4] | IC50 (Estrogen receptor)

CC(C(=O)O)c1ccc2oc(-c3ccc(Cl)cc3)nc2c1 (stereo not given) [BENOXAPROFEN]
Not Active: IC50 [1] | IC50 [2] | IC50 (Histamine H2 receptor) | IC50 [3] | IC50 [4] | Ki [4] | IC50 (Estrogen receptor)

COc1ccc2cc3[n+](cc2c1OC)CCc1cc2c(cc1-3)OCO2.[Cl-] [BERBERINE CHLORIDE]
Not Active: IC50 [1] | IC50 [2] | IC50 (Histamine H2 receptor) | IC50 [3] | IC50 [4] | Ki [4] | IC50 (Estrogen receptor)

O=C(O)CCNC(=O)c1ccccc1 [BETAMIPRON]
Not Active: IC50 [1] | IC50 [2] | IC50 (Histamine H2 receptor) | IC50 [3] | IC50 [4] | Ki [4] | IC50 (Estrogen receptor)

CC(=O)Oc1ccc(C(c2ccc(OC(C)=O)cc2)c2ccccn2)cc1 [BISACODYL]
Not Active: IC50 [1] | IC50 [2] | IC50 (Histamine H2 receptor) | IC50 [3] | IC50 [4] | Ki [4] | IC50 (Estrogen receptor)

Cc1cc2c(OCC(CNC(C)(C)C)OC(=O)c3ccccc3)cccc2[nH]1 (stereo not given) [BOPINDOLOL]
Not Active: IC50 [1] | IC50 [2] | IC50 (Histamine H2 receptor) | IC50 [3] | IC50 [4] | Ki [4] | IC50 (Estrogen receptor)

CN/C(=N\CCSCc1nc[nH]c1C)NC#N [CIMETIDINE]
Not Active: IC50 [1] | IC50 [2] | IC50 [3] | IC50 [4] | Ki [4] | IC50 (Estrogen receptor)

COc1cc(N)c(Cl)cc1C(=O)NC1CCN(CCCOc2ccc(F)cc2)CC1OC (stereo not given) [CISAPRIDE]
Not Active: IC50 [1] | IC50 [2] | IC50 (Histamine H2 receptor) | IC50 [3] | IC50 [4] | Ki [4] | IC50 (Estrogen receptor)

CCC(=O)O[C@]1(C(=O)CCl)[C@@H](C)C[C@H]2[C@@H]3CCC4=CC(=O)C=C[C@]4(C)[C@@]3(F)[C@@H](O)C[C@@]21C [CLOBETASOL PROPIONATE]
Not Active: IC50 [1] | IC50 [2] | IC50 (Histamine H2 receptor) | IC50 [3] | IC50 [4] | Ki [4] | IC50 (Estrogen receptor)

O=C1CN=C(c2ccccc2Cl)c2cc([N+](=O)[O-])ccc2N1 [CLONAZEPAM]
Not Active: IC50 [1] | IC50 [2] | IC50 (Histamine H2 receptor) | IC50 [3] | IC50 [4] | Ki [4] | IC50 (Estrogen receptor)

Nc1ccn([C@@H]2O[C@H](CO)[C@@H](O)[C@@H]2O)c(=O)n1 [CYTARABINE]
Not Active: IC50 [1] | IC50 [2] | IC50 (Histamine H2 receptor) | IC50 [3] | IC50 [4] | Ki [4] | IC50 (Estrogen receptor)

C#C[C@]1(OC(C)=O)CC[C@H]2[C@@H]3CCC4=C[C@@H](OC(C)=O)CC[C@@H]4[C@H]3CC[C@@]21C [ETHYNODIOL DIACETATE]
Not Active: IC50 [1] | IC50 [2] | IC50 (Histamine H2 receptor) | IC50 [4] | Ki [4] | IC50 (Estrogen receptor)

O=C(O)c1cccnc1Nc1cccc(C(F)(F)F)c1 [NIFLUMIC ACID]
Not Active: IC50 [1] | IC50 (Histamine H2 receptor) | IC50 [3] | IC50 [4] | Ki [4] | IC50 (Estrogen receptor)
